Test results as given in patent EP0303387B1, “Kynurenic acid derivatives useful in the treatment of neurodegenerative disorders” (MERCK SHARP & DOHME LTD., priority 1987, dated 1989).
Where a name gives a salt, the structure may show the parent alone.

Target: T1, NMDA receptor (Rattus norvegicus, UniProt P35439)
T1 construct: from tissue; host or cells: rat cortical slice
Test: antagonism of responses to NMDA, rat cortical slice preparation
Assay type: cell-based
Conditions: not given
Protocol: The effects of compounds of the invention on responses to the agonists NMDA, kainate and quisqualate were assessed using the rat cortical slice preparation as described by Wong et al., Proc. Natl. Acad. Sci. USA, 1986, 83, 7104. The apparent equilibrium constants (Kb) were calculated from the righthand shift in the agonist concentration-response curve.

| SMILES | Kb |
| --- | --- |
| O=C(O)c1cc(O)c2ccc(Br)cc2n1 [7-bromo-4-oxo-1,4-dihydroquinoline-2-carboxylic acid] | < 100 µM |

Same assay, conditions: rat cortical slice; apparent equilibrium constant (Kb) calculated from righthand shift in the agonist concentration-response curve; read-out: NMDA antagonist activity at concentrations (Kb)

| Kb | SMILES |
| --- | --- |
| < 100 µM | O=C(NOCc1ccccc1)c1cc(=O)c2c(Cl)cc(Cl)cc2[nH]1 [5,7-Dichloro-4-oxo-1,4-dihydroquinoline-2-(O-benzyl)hydroxamic acid] |
| < 100 µM | O=C(NO)c1cc(=O)c2c(Cl)cc(Cl)cc2[nH]1 [5,7-Dichloro-4-oxo-1,4-dihydroquinoline-2-hydroxamic acid potassium salt.] |
| < 100 µM | Cc1cc(C)c2c(O)cc(C(=O)O)nc2c1 [5,7-Dimethyl-4-oxo-1,4-dihydroquinoline-2-carboxylic acid] |
| < 100 µM | O=C(O)c1cc(O)c2c(Br)cc(Br)cc2n1 [5,7-dibromo-4-oxo-1,4-dihydroquinoline-2-carboxylic acid] |
| < 100 µM | O=C(O)c1cc(O)c2c(Cl)cc(Cl)cc2n1 [5,7-dichloro-4-oxo-1,4-dihydroquinoline-2-carboxylic acid] |
| < 100 µM | CCc1cc(Br)c2c(O)cc(C(=O)O)nc2c1 [5-Bromo-7-ethyl-4-oxo-1,4-dihydroquinoline-2-carboxylic acid] |
| < 100 µM | Cc1cc(Br)c2c(O)cc(C(=O)O)nc2c1 [5-Bromo-7-methyl-4-oxo-1,4-dihydroquinoline-2-carboxylic acid] |
| < 100 µM | CCc1cc(Cl)c2c(O)cc(C(=O)O)nc2c1 [5-Chloro-7-ethyl-4-oxo-1,4-dihydroquinoline-2-carboxylic acid] |
| < 100 µM | O=C(O)c1cc(O)c2c(Cl)cc(I)cc2n1 [5-Chloro-7-iodo-4-oxo-1,4-dihydroquinoline-2-carboxylic acid] |
| < 100 µM | CCc1cccc2nc(C(=O)O)cc(O)c12 [5-Ethyl-4-oxo-1,4-dihydroquinoline-2-carboxylic acid] |
| < 100 µM | O=C(O)c1cc(=O)c2c(F)cccc2[nH]1 [5-Fluoro-4-oxo-1,4-dihydroquinoline-2-carboxylic acid] |
| < 100 µM | O=C(O)c1cc(O)c2c(I)cccc2n1 [5-Iodo-4-oxo-1,4-dihydroquinoline-2-carboxylic acid] |
| < 100 µM | Cc1cc(I)c2c(O)cc(C(=O)O)nc2c1 [5-Iodo-7-methyl-4-oxo-1,4-dihydroquinoline-2-carboxylic acid] |
| < 100 µM | O=C(O)c1cc(=O)c2c(C(F)(F)F)cccc2[nH]1 [5-Trifluoromethyl-4-oxo-1,4-dihydroquinoline-2-carboxylic acid] |
| < 100 µM | O=C(O)c1cc(=O)c2c(Br)cccc2[nH]1 [5-bromo-4-oxo-1,4-dihydroquinoline-2-carboxylic acid] |
| < 100 µM | O=C(O)c1cc(O)c2c(Cl)cccc2n1 [5-chloro-4-oxo-1,4-dihydroquinoline-2-carboxylic acid] |
| < 100 µM | Cc1cccc2nc(C(=O)O)cc(O)c12 [5-methyl-4-oxo-1,4-dihydroquinoline-2-carboxylic acid] |
| < 100 µM | O=C(O)c1cc(=O)c2cc(F)ccc2[nH]1 [6-fluoro-4-oxo-1,4-dihydroquinoline-2-carboxylic acid] |
| < 100 µM | CCc1cc(Br)cc2nc(C(=O)O)cc(O)c12 [7-Bromo-5-ethyl-4-oxo-1,4-dihydroquinoline-2-carboxylic acid] |
| < 100 µM | Cc1cc(Br)cc2nc(C(=O)O)cc(O)c12 [7-Bromo-5-methyl-4-oxo-1,4-dihydroquinoline-2-carboxylic acid] |
| < 100 µM | CCc1cc(Cl)cc2nc(C(=O)O)cc(O)c12 [7-Chloro-5-ethyl-4-oxo-1,4-dihydroquinoline-2-carboxylic acid] |
| < 100 µM | O=C(O)c1cc(O)c2c(I)cc(Cl)cc2n1 [7-Chloro-5-iodo-4-oxo-1,4-dihydroquinoline-2-carboxylic acid] |
| < 100 µM | Cc1cc(I)cc2nc(C(=O)O)cc(O)c12 [7-Iodo-5-methyl-4-oxo-1,4-dihydroquinoline-2-carboxylic acid] |
| < 100 µM | O=C(O)c1cc(O)c2ccc(Cl)cc2n1 [7-chloro-4-oxo-1,4-dihydroquinoline-2-carboxylic acid] |
| < 100 µM | O=C(O)c1cc(O)c2ccc(F)cc2n1 [7-fluoro-4-oxo-1,4-dihydroquinoline-2-carboxylic acid] |
| < 100 µM | O=C(O)c1cc(O)c2ccc(I)cc2n1 [7-iodo-4-oxo-1,4-dihydroquinoline-2-carboxylic acid] |
| < 100 µM | Cc1ccc2c(O)cc(C(=O)O)nc2c1 [7-methyl-4-oxo-1,4-dihydroquinoline-2-carboxylic acid] |
| < 100 µM | O=C(O)c1cc(=O)c2ccc([N+](=O)[O-])cc2[nH]1 [7-nitro-4-oxo-1,4-dihydroquinoline-2-carboxylic acid] |

Tested on: excitatory amino acid receptors
Test: not given
Conditions: statement in words; R.H. Evans et al., Br. J. Pharmac., 1987, 91, 531; cited from earlier work

| SMILES | antagonist of excitatory amino acid receptors |
| --- | --- |
| O=C(O)c1cc(=O)c2ccccc2[nH]1 [Kynurenic acid, 4-oxo-1,4-dihydroquinoline-2-carboxylic acid] | weak and non-selective antagonist |
